We go through eleven compounds from patent publication EP3423441B1, “IODINATED ANALOGS OF CHOLINE, METHODS OF PREPARATION THEREOF, AND USE THEREOF AS MEDICAMENTS” (Univerzita Palackého v Olomouci, priority 2016, dated 2017).

Where two headings read alike, the source gives them in different places.

For data set [1], the system named is choline transporters. Particulars: published data, Müller S. A. et al. (2009); cited from earlier work.
Data set [2] relates to choline transporters. Description: In vitro determination of IC50: inhibition of [^3H]choline chloride accumulation in PC-3 cells. Type of data set: cell-based. To be noted: cell line PC-3 (human prostate carcinoma); [^3H]choline chloride 0.81 × 10^-6 M; 60 min at 37 °C. The method, then:
IC50 value corresponds to a concentration of the given analog of choline which reduces the accumulation of choline chloride, the natural ligand of choline transporterss, to 50 % of the maximum value. For the assay, the tritium labeled choline chloride, i.e. [^3H]choline chloride, was used. The assay was performed in vitro on the cell line PC-3 derived from a human prostate carcinoma, which is known to overexpress choline transporters. […] As the negative control, a cell line of human ovarian carcinoma SKOV3 prepared to the confluence of 90 % in 24-well plates was used.
The cultivation medium was removed from the thus prepared cells in cultivation plates and the cells were rinsed with phosphate buffered saline (PBS). Subsequently, 0.3 mL of "incubation buffer" (25 mM Tris/HCl, 5.4 mM KCl, 1.8 mM CaCl2, 0.8 mM MgSO4, 5 mM glucose, 140 mM NaCl, pH adjusted to 7.4) was added to the cells. Then 0.1 mL of the solution of the tested substance (analog of choline) in the incubation buffer was added to the PC-3 cells in such concentrations, that after adding [^3H]choline chloride the resulting concentrations of the tested analog would be following: 0 M, 10^-8 M, 10^-7 M, 10^-6 M, 5 × 10^-6 M, 10^-5 M, 10^-4 M, 5 × 10^-4 M, 10^-3 M, 5×10^-3 M. Each concentration was tested in triplicate.
Subsequently, all cells prepared in this manner (PC-3 and SKOV3) were incubated with the analogs of choline for 15 minutes at the temperature of 37 °C.
Then 0.1 mL of the solution of the [^3H]choline chloride in the incubation buffer was added to all cell-containing wells, so that 0.1 mL of the solution had the activity of 15 kBq and that the final concentration of the [^3H]choline chloride in the medium with the cells was 0.81 × 10^-6 M. The cells were then incubated at 37 °C for a period of 60 min. After the incubation, all buffer solution was removed from the cells. The cells were rinsed with PBS, which was subsequently removed, and 0.2 mL of aqueous NaOH solution (0.1 M) was added to each well. The cells were incubated with sodium hydroxide for 30 min at 37 °C. The lysate was then homogenized with a pipette and 10 µL of the lysate were used for the determination of protein concentration by bicinchonic acid assay (BCA).
The remaining lysate (180 µL) was quantitatively transferred into scintillation vials containing a previously prepared scintillation solution (2 mL of the solution in each vial). Each well was then additionally rinsed with 0.2 mL of pure water and this solution was added to the corresponding scintillation vials. Scintillation vials were closed and their content was stirred on a shaker.
To another three scintillation vials containing scintillation solution (2 mL of the solution in each vial) the standard samples of [^3H]choline chloride were added (i.e. 10 µl of the [^3H]choline chloride solution together with 180 µl of aqueous NaOH solution (0.1 M) and 200 µl of water). The vials were closed and their content was stirred on the shaker.
Subsequently, radioactivity of each scintillation vial was measured using a liquid scintillation counter (Tri-Carb 2910TR Liquid Scintillation Counter, PerkinElmer). The recorded counts per second (cps) were then used to calculate the accumulation of [^3H]choline chloride in the individual cell samples. […] These values were used to construct a sigmoid curve of dependence between the rate of [^3H]choline chloride accumulation and the competing ligand (analog of choline) concentration(inhibition curve, Figure 2). The IC50 values were calculated from these inhibition curves.

Data set [3] in a line: Binding to plasmatic proteins. Particulars: plasma.
A short description of a further data set: in vitro. Particulars: liver microsomes.
A further data set is described as follows: Microsomal stability. Particulars: hepatic microsomes.

As to `C[N+]1(C)CCOC(O)(c2ccc(-c3ccc(C4(O)C[N+](C)(C)CCO4)cc3)cc2)C1` (stereo not shown) [Hemicholinium-3, reference compound], the values for the concentration for half-maximal inhibition (IC50) with choline transporters [1] and in the data set with choline transporters [2] were 17 µM and 29 µM, respectively.
In data set [3], `COc1ccc(CCC[N+](C)(C)CCO)cc1I.Cc1ccc(S(=O)(=O)[O-])cc1` [Example 4, (2-hydroxyethyl)-[3-(3-iodo-4-methoxyphenyl)propyl]-dimethylammonium 4-methylbenzenesulfonate] gave a fraction unbound of 0.715. Further, the “Plasma stability (120 min)” value in the data set “Stability in the plasma” was found to be 63.9%. In the data set “in vitro”, the microsomal CLint turned out to be 1120 µL/min/mg. In “Microsomal stability”, the “Microsomal stability t1l2” value was determined as 1.2 min. In the data set with choline transporters [2], this compound registered an IC50 of 19 µM.
In turn, `Cc1ccc(S(=O)(=O)[O-])cc1.OCC[N+]1(Cc2ccccc2I)CCCCC1` [Example 14, 1-(2-hydroxyethyl)-1-(2-iodobenzyl)piperidin-1-ium 4-methylbenzenesulfonate] gave a fraction unbound in data set [3] of 0.831. Besides, in “Stability in the plasma”, the “Plasma stability (120 min)” value is 80.7%. The microsomal CLint in the data set “in vitro” stood at 22.6 µL/min/mg. For the same compound, in “Microsomal stability”, the “Microsomal stability t1l2” value is reported as 61.3 min. In addition, it took 190 µM to reach half-maximal inhibition with choline transporters [2] (IC50).
In data set [3], `C[N+]1(Cc2ccccc2I)CCCC(O)C1.Cc1ccc(S(=O)(=O)[O-])cc1` (stereo not shown) [Example 16, 3-hydroxy-1-(2-iodobenzyl)-1-methylpiperidin-1-ium 4-methylbenzenesulfonate] showed a fraction unbound of 0.956. Further, the “Plasma stability (120 min)” value in the data set “Stability in the plasma” amounted to 79.0%. The compound further displayed a microsomal CLint in the data set “in vitro” of 11.6 µL/min/mg. Besides, the “Microsomal stability t1l2” value in the data set “Microsomal stability” came to 119.5 min. The IC50 in the data set with choline transporters [2] was 240 µM.
For `COc1c(I)cc(CC[N+](C)(C)CCO)cc1I.Cc1ccc(S(=O)(=O)[O-])cc1` [Example 3, (2-hydroxyethyl)-[2-(3,5-diiodo-4-methoxyphenyl)ethyl]-dimethylammonium 4-methylbenzenesulfonate] the same measures were 0.512, 76.4%, 1040 µL/min/mg, 1.3 min and 25 µM.
On the same counts, the results for `C[N+](C)(CCO)CCc1ccc(I)cc1.Cc1ccc(S(=O)(=O)[O-])cc1` [Example 5, (2-hydroxyethyl)-[2-(4-iodophenyl)ethyl]-dimethylammonium 4-methylbenzenesulfonate] are 0.653, 43.0%, 88.6 µL/min/mg, 15.6 min and 7.4 µM.
On to `COc1ccc(CC[N+]23CCC(CC2)C(O)C3)cc1I.Cc1ccc(S(=O)(=O)[O-])cc1` (stereo not shown) [Example 2, 3-hydroxy-1-[2-(3-iodo-4-methoxyphenyl)ethyl]quinuclidin-1-ium 4-methylbenzenesulfonate], for which the fraction unbound in data set [3] was 0.748. Moreover, the “Plasma stability (120 min)” value in the data set “Stability in the plasma” was 59.0%. This compound also registered a microsomal CLint in “in vitro” of 14.2 µL/min/mg. The “Microsomal stability t1l2” value in “Microsomal stability” worked out at 97.6 min. Also, the midpoint of inhibition in the data set with choline transporters [2], the IC50, lay at 92 µM.
In turn, `CC[N+](CC)(CCO)Cc1ccccc1I.Cc1ccc(S(=O)(=O)[O-])cc1` [Example 15, Diethyl-(2-hydroxyethyl)-(2-iodobenzyl)ammonium 4-methylbenzenesulfonate] had a fraction unbound in data set [3] of 0.814. Moreover, in “Stability in the plasma”, the “Plasma stability (120 min)” value amounted to 84.9%. In addition, in “in vitro”, the microsomal CLint came to 73.6 µL/min/mg. Besides, the “Microsomal stability t1l2” value in “Microsomal stability” stood at 18.8 min. In the data set with choline transporters [2], this compound showed a concentration for half-maximal inhibition (IC50) of 8.4 µM.
As to `COc1ccc(CC[N+](C)(C)CCO)cc1I.Cc1ccc(S(=O)(=O)[O-])cc1` [Example 1, (2-hydroxyethyl)-[2-(3-iodo-4-methoxyphenyl)ethyl]-dimethylammonium 4-methylbenzenesulfonate], the fraction unbound in data set [3] is 0.805. Besides, in the data set “Stability in the plasma”, the “Plasma stability (120 min)” value was determined as 28.4%. For the same compound, the microsomal CLint in “in vitro” stood at 8.4 µL/min/mg. For the same compound, in the data set “Microsomal stability”, the “Microsomal stability t1l2” value amounted to 165.0 min. The same compound showed an IC50 with choline transporters [2] of 47 µM.
Regarding `Cc1ccc(S(=O)(=O)[O-])cc1.OCC[N+]1(CCc2ccc(I)cc2)CCCC1` [Example 7, 1-(2-hydroxyethyl)-1-[2-(4-iodophenyl)ethyl]pyrrolidin-1-ium 4-methylbenzenesulfonate], the fraction unbound in data set [3] is 0.833. Moreover, the “Plasma stability (120 min)” value in “Stability in the plasma” is recorded as 97.6%. Also, the microsomal CLint in “in vitro” is 90.6 µL/min/mg. Further, the “Microsomal stability t1l2” value in the data set “Microsomal stability” is listed as 15.3 min. 16 µM corresponded to half-maximal inhibition with choline transporters [2] (IC50).
On the same counts, the results for `C[N+]1(CCc2ccc(I)cc2)CCCC(O)C1.Cc1ccc(S(=O)(=O)[O-])cc1` (stereo not shown) [Example 6, 3-hydroxy-1-[2-(4-iodophenyl)ethyl]-1-methylpiperidin-1-ium 4-methylbenzenesulfonate] are 0.735, 81.3%, 1230 µL/min/mg, 1.1 min and 83 µM.

The term IC50 denotes the concentration that gives 50% inhibition. Broadly, the fraction unbound is the share of the substance not bound to proteins or other matrix. Read a low fraction unbound as extensive binding. For orientation: microsomal CLint means a measure of how fast metabolising enzymes remove a compound, apart from limits set by blood flow.
